What is called melting point is the temperature, or range, at which the solid turns liquid.

From a melting point compilation (Tetko et al.; mined from patent text by program, amines drawn as free bases though some values may be those of a salt) come the findings set out here.

Molecules are shown by their SMILES. Bounds are passed on as bounds.

`CCc1nc2c(N)nc3cc(Br)cnc3c2n1CC(C)(C)O` returned a melting point of 235 to 236 °C.

For the compound `C/C(=C\CC1OC(=O)NC1=O)c1cccc(OCc2nc(-c3ccc(OCC(F)(F)F)cc3)oc2C)c1` (stereo not given), the melting point is 120 to 121 °C.

`COc1ccccc1C1=NC(C)(C)CO1` registered a melting point of 70 to 72 °C.

For the compound `C=CCc1c(O)ccc2c(C)c(CC(=O)OC)c(=O)oc12`, the melting point lay in the range of 160 to 162 °C.

Turning to `O=C1NCCCc2cc(CCN3CCC(c4noc5cc(F)ccc45)CC3)sc21`, the melting point is 192 to 194 °C.

The compound `CC(C)(C)c1cc(N=C(O)c2cc(C(O)=Nc3cc(C(C)(C)C)c(O)c(C(C)(C)C)c3)c(C(=O)O)cc2C(=O)O)cc(C(C)(C)C)c1O` showed a melting point of 304 to 306 °C.

The compound `CS(=O)(=O)c1ccc(-n2nc(C(F)(F)F)cc2-c2ccc(-c3cscn3)c(F)c2)cc1F` gave a melting point of 156 to 158 °C.

`Cc1nc(N2CCCC(Cc3ccc(C(F)(F)F)cc3)C2=O)sc1C(=O)NCc1ccccc1` (stereo not given) displayed a melting point of 217 to 218 °C.

As for `CN(C)c1ccc(C(=O)N(CCN2CCC(C(=O)c3ccc(F)cc3)CC2)c2cccnc2)cc1`, the melting point is 147 to 152 °C.

The compound `Cc1onc(-c2ccccc2)c1C(=O)NCCCN1CCN(c2ccccc2OCC(F)(F)F)CC1` returned a melting point of 124 to 125 °C.

`CCC1(CC)OC(C(=O)O)Oc2ccc(Cl)cc21` (stereo not given) yielded a melting point of 108 °C.

Take `CC(C)(C)OC(=O)c1cc(-c2cccc(F)c2)c(=O)n2c1-c1sccc1CC2`: the melting point lay in the range of 135 to 137 °C.

`CC1(C)CC(=NO)c2cc(F)ccc2O1` had a melting point of 108 to 110 °C.

On to `COc1cc(C=O)ccc1OCc1coc(-c2ccco2)n1`, for which the melting point fell in the range of 138 to 139 °C.

As to `FC(F)(F)c1ccccc1CC[C@H]1CN(Cc2ccccc2)CCN1Cc1ccccc1`, the melting point was 77 to 82 °C.

As for `Nc1ccc(C(=O)c2ccccn2)cc1N`, the melting point lay in the range of 137 to 138 °C.

The compound `COC(=O)CC(CSc1ccc2ccccc2c1)C(=O)O` (stereo not given) came in with a melting point of 97 to 99 °C.

The compound `OCc1ccc2c(c1)ncn2-c1cccc(-c2cccnc2)c1` yielded a melting point of 183 to 185 °C.

Compound `CC(C)[Si](OC[C@H]1C(C=O)=Cc2cc3c(cc2[C@@H]1O)OCO3)(C(C)C)C(C)C` registered a melting point of 87 to 89 °C.

As to `OCC(CO)(OCc1ccccc1)c1ccccc1`, the melting point lay within 83 to 86 °C.

`CSc1sc(C(=O)O)c2c1-c1nn(C)cc1CC2` registered a melting point of 290 to 291 °C.

In the case of `CC(C)(C)CNc1nc(NC(C)(C)C)cc(N2CCNCC2)n1`, the melting point fell in the range of 146 to 148 °C.

As to `Cc1cc2c(cc1Sc1ccc(C(=O)O)c(O)c1)C(C)(C)CCC2(C)C`, the melting point lay in the range of 74 to 75 °C.

`Cc1c(C(=O)O)cnn1CCO` registered a melting point of 203 °C.

`CN(C(=O)C(=O)c1cn(Cc2ccc(Cl)cc2)c2ccccc12)C1=CC(=O)OC1`: the melting point fell in the range of 205 to 208 °C.

The compound `O=C1NCC(Cn2cncn2)(c2ccc(Cl)cc2Cl)O1` (stereo not given) displayed a melting point of 223 °C.

`OCCCCCCCCCCCN1CCCCC1`: the melting point was in the range of 62 to 65 °C.

As for `O=CNCc1ccc(CN2CCN(c3ccccc3)CC2)cc1`, the melting point lay within 108 to 109 °C.

Compound `Cc1ccc(OC2CCN(C(C=O)Nc3ccc4c(c3)OCC(=O)N4)CC2)cc1` (stereo not given) displayed a melting point of 223 to 224 °C.

With `CCCCOCCOc1ccc(-c2ccc3c(c2)C=C(C(=O)Nc2ccc(N(C)Cc4nncn4CCC)cc2)CCN3CCC)cc1`, the melting point was in the range of 131 to 133 °C.

`Nc1cc(Cl)ccc1C(=O)NCCCc1cccnc1` yielded a melting point of 145 to 147 °C.

`CCCCc1ccc(C(=O)Oc2ccc(C=O)cc2)cc1` returned a melting point of 49.7 °C.

As to `CCCCNC(=O)CN1C(=O)C(NC(=O)OCc2ccccc2)N=C(c2ccccc2)c2ccccc21` (stereo not given), the melting point fell in the range of 127 to 129 °C.

Take `CSc1cc(-n2ncc(-c3ccc(S(C)(=O)=O)cc3)c(-c3ccc(F)cc3)c2=O)ccc1F`: the melting point fell in the range of 105 to 107 °C.

`CC1(C)NC(=O)CSC1=NO`: the melting point was 234 to 236 °C.

As for `COc1ccc2c(c1)c(C(=O)N1CCN(C)CC1)c(N1CCNCC1)n2C`, the melting point lay within 124 to 125 °C.

`COc1cc(C(C)C)cc(OC)c1-c1nc(N)sc1CCC1CCCCC1` showed a melting point of 143 °C.

Compound `O=C(O)C1=Cc2cc(S(=O)(=O)NCc3ccco3)ccc2OC1C(F)(F)F` (stereo not given) showed a melting point of 170 to 173 °C.

Compound `Cc1cnc(NC(=O)C2c3ccccc3Oc3ccccc32)o1` showed a melting point of 217 to 220 °C.

With `C[C@H](C#Cc1ccc(Cc2ccc(Cl)cc2)s1)N(O)C(N)=O`, the melting point came to 132 °C.

On to `O=c1[nH]cnc2ccc(C(F)(F)F)cc12`, for which the melting point lay within 209 to 211 °C.

`OCC1=CC=C(CO)SS1` registered a melting point of 64 to 66 °C.

The compound `CC(=O)N1CCC(CCCC(=O)c2ccc(F)cc2)CC1` displayed a melting point of 77 to 78 °C.

Compound `CNC(=O)C1CN(C(c2ccccc2)c2ccccc2)C1` registered a melting point of 103 to 107 °C.

For the compound `O=c1[nH]c2cc(C(F)(F)F)ccc2n1-c1cc(Cl)cc(Br)c1O`, the melting point fell in the range of 254 to 255 °C.

Regarding `CN(C)C(=O)CC(=O)c1ccc(C(=O)CC(=O)C(C)(C)C)cc1`, the melting point was 159 to 160 °C.

`CCOC(=O)Nc1nc(C)c(-c2nc3ccccc3c(=O)n2-c2ccccc2Cl)s1` came in with a melting point of 246 to 247 °C.

`O=CNC(Cl)C(Cl)(Cl)CCl` (stereo not given) returned a melting point of 55 to 57 °C.

In the case of `OCC1OC(n2cnc3c(OCC4CC4)ncnc32)CC1F` (stereo not given), the melting point amounted to 100 °C.

In turn, `CCc1cc(N(C)C(=O)N2CCN(c3cc(C)cc(C)c3)CC2)c(OC)nc1C` came in with a melting point of 86 to 87 °C.

`Cn1c2c(c3cc(Cl)ccc31)CCC(C(=O)O)C2` (stereo not given) gave a melting point of 259 to 260 °C.

Consider `COC(=O)c1oc2ccc(Cl)cc2c1-c1ccccc1C(F)(F)F`, for which the melting point is 205 to 208 °C.

As for `C[C@@H](NC(=O)c1cnc(-c2ccc(Cl)cc2)s1)[C@](O)(Cn1cncn1)c1ccc(F)cc1F`, the melting point was in the range of 194 to 195 °C.

Regarding `COc1ccc2c(c1)cc(/C=C/c1ccccc1Cl)n2CCC#N`, the melting point was in the range of 136 to 138 °C.

`C=CCCCS(=O)(=O)CCCC(=O)O` came in with a melting point of 104 to 107 °C.

For the compound `CCC(NC(C)=O)c1ccc(CN2CCN(c3ccccc3)CC2)cc1` (stereo not given), the melting point lay in the range of 109 to 110 °C.

With `CC(=O)Nc1ccc(O)c(C(=O)C=Cc2ccccc2)c1`, the melting point fell in the range of 162 to 165 °C.

`O=C(Nc1ccc(Oc2ccnc(N3CCCC3)n2)c2ccccc12)c1ccccc1N1CCCC(F)C1` (stereo not given): the melting point lay within 111 to 113 °C.

In the case of `CCOC(=O)CC(Cc1ccc(OCCc2nc(-c3ccccc3)oc2C)cc1)C(N)=O` (stereo not given), the melting point amounted to 142 °C.

In turn, `CC1=C(C(=O)OCCC#N)C(c2ccccc2Cl)C(c2nnco2)=C(C)N1` (stereo not given) displayed a melting point of 180 to 182 °C.

Turning to `CCCc1c(C(=O)C(C)C)c2ccc(C(N)=O)cc2n1Cc1ccccc1C(N)=O`, the melting point lay within 273 to 274 °C.

For `Cc1nc(C(F)F)c(C(=O)Nc2ccccc2-c2ccc(Br)cc2)s1`, the melting point came out at 151 °C.

Turning to `CC1CCc2c(c3c(O)cc(C(C)CCCc4ccc(F)cc4)cc3oc2=O)C1` (stereo not given), the melting point was 127 to 129 °C.

On to `CNC(=O)c1ccc(C=C2CC3CCC(C2)N3)cc1`, for which the melting point is 164 to 166 °C.

Consider `O=[N+]([O-])c1c(Br)nn(CCO)c1Br`, for which the melting point was in the range of 103 to 105 °C.

Turning to `O=C(C=Cc1ccc(Cl)cc1)C1CC1`, the melting point was 61 °C.

Turning to `CC(C)(O)CON1C(C)(C)CC(O)CC1(C)C`, the melting point fell in the range of 127 to 131 °C.

The compound `CCOC(=O)COCc1nnc(S)s1` had a melting point of 80 to 82 °C.

Compound `O=[N+]([O-])c1cc(Cl)ccc1N1CCc2ccccc21` yielded a melting point of 97 to 99 °C.

`CCNC(=NNc1c(Cl)cc(C(F)(F)F)cc1Cl)C1(C)CC1(Cl)Cl` (stereo not given) came in with a melting point of 79 °C.

In turn, `C#CCNc1nnc(-c2ccccc2)cc1C` registered a melting point of 101 °C.

In turn, `Nc1nc2ccc(OC(F)(F)C(F)(F)F)cc2s1` displayed a melting point of 156 °C.

As to `COC(=O)COc1ccc(CC(C)NCC(O)c2cccc(C(F)(F)F)c2)cc1C` (stereo not given), the melting point lay in the range of 75 to 79 °C.

With `Cc1ccc(S(=O)(=O)N2[C@@H](c3noc(C)n3)CC[C@H]2c2ccc(F)cc2)cc1` (racemic), the melting point was determined as 115 °C.

For `O=C(O)CN1C(=O)C(=Cc2ccc(OCc3ccccc3)c(OCc3ccc(F)c(F)c3)c2)SC1=S`, the melting point lay within 231 to 236 °C.

The compound `CCN1C(=O)C(=C2C=C(N3CCCC3)CC(C)(C)C2)C(=O)N(CC)C1=S` had a melting point of 226 to 227 °C.

In the case of `CC1(C)C(c2ccc(S(C)(=O)=O)cc2)=C(c2ccccc2)C1F` (stereo not given), the melting point fell in the range of 79 to 81.5 °C.

For `COc1cc(-c2cc(=O)c3cccnc3o2)ccc1O`, the melting point lay in the range of 253 to 255 °C.

`C1=COc2ccccc2O1` registered a melting point of 59 to 61 °C.

On to `O=[N+]([O-])c1ccc(Cl)c(N=Cc2ccccc2O)c1`, for which the melting point lay in the range of 168 to 169 °C.

`Cn1nc(-c2c(F)cccc2Cl)nc1C(O)c1ccc(Cl)cc1` (stereo not given): the melting point lay in the range of 141 to 143 °C.

`O=CC1c2cccc(Cl)c2C(C=O)c2cccc(Cl)c21` (stereo not given): the melting point lay in the range of 160 to 172 °C.

`CCCCS(=O)(=O)Nc1ccc(C(=O)c2ccccc2)cc1`: the melting point was in the range of 76 to 80 °C.

`Cc1c(C#N)ccc([N+](=O)[O-])c1C#N` returned a melting point of 122 to 124 °C.

In turn, `COc1ccc(OC)c([Si](C)(C)COc2cc(C(C)(C)C)c(O)c(C(C)(C)C)c2)c1` displayed a melting point of 103 °C.

Consider `CCCCCCCCCCCCCCCCCCOc1ccc(OCCCOc2ccc(OCc3ccccc3)cc2)c(C(=O)N(CC(=O)O)CC(=O)O)c1`, for which the melting point lay within 70 to 74 °C.

In turn, `COC(=O)CCc1oc2ccc(C#N)cc2c1C(=O)c1ccc(OC)cc1` returned a melting point of 95 to 98 °C.

As to `Cn1c2cc(Cl)ccc2c2c(CO)nn(-c3ccccc3)c(=O)c21`, the melting point lay within 219 to 220 °C.

`Oc1ccc(-c2c3ccccc3cc3oc4ccccc4c23)c(O)c1` showed a melting point of 201 to 202 °C.

The compound `Oc1ccc(-c2ncc3ncc(-c4ccoc4)cc3n2)cc1` gave a melting point above 268 °C.
